The values below are quoted from earlier work in patent US20140093564A1, “PHARMACEUTICAL COMPOSITIONS OF COMBINATIONS OF DIPEPTIDYL PEPTIDASE-4 INHIBITORS WITH SIMVASTATIN” (MERCK SHARP & DOHME LTD., priority 2011, published 2014).

For the data set the following is noted: oral administration, human Type 2 diabetics.

With `N[C@@H](CC(=O)N1CCn2c(nnc2C(F)(F)F)C1)Cc1cc(F)c(F)cc1F` [sitagliptin, (2R)-4-oxo-4-[3-(trifluoromethyl)-5,6-dihydro[1,2,4]triazolo[4,3-α]pyrazin-7(8H)-yl]-1-(2,4,5-trifluorophenyl)butan-2-amine], the HbA1c levels entry was “significantly reduced”, the fasting glucose entry is “reduce” and the postprandial glucose excursion entry is “reduce”.

For `N#C[C@@H]1CCCN1C(=O)CNC12CC3CC(CC(O)(C3)C1)C2` [vildagliptin, (S)-1-[(3-hydroxy-1-adamantyl)amino]acetyl-2-cyano-pyrrolidine], the HbA1c levels entry was “significantly reduced”, the fasting glucose entry is listed as “reduce” and the postprandial glucose excursion result is given as “reduce”.
